Assay results from patent US6455533B1, “Pharmaceutical compositions for oral administration, comprising an active substance and a cyclodextrin” (UCB, S.A., priority 1997, dated 2002).
Counter-ions that a name gives are not always drawn.

Columns and labels:
[1] = pH 3.4
Experimental: Two solutions A and B were prepared. […] These two solutions were stirred at room temperature until thermodynamic equilibrium was reached.

[2] = Competition for the complexation with colored indicators; type: physicochemical; conditions: complex with β-cyclodextrin
Source text: In this case, the cetirizine comes into competition with the colored indicator for the formation of an inclusion complex. The changes in the visible-range spectrum thus make it possible to determine whether or not cetirizine forms an inclusion complex with cyclodextrin. Two acid-base indicators were used; crystal violet and methyl orange. In the case of the acid-base indicators, the changes in the absorption spectrum due to complexation with a cyclodextrin are often large given that the complexation brings about a change in the pK of the indicator. If the pH of the solution is close to the pK, the addition of a cyclodextrin to an acid-base indicator solution brings about ionization or deionization of the indicator, which is reflected by a change in the color of the solution. Consequently, the absorption maximum in the visible spectrum is displaced as a function of the degree of complexation. […] (J.

| Compound | increase of solubility (factor) [1] | association constant (average value) ([2]; competition with crystal violet) [mol⁻¹] | association constant (average value) ([2]; competition with methyl orange) [mol⁻¹] |
| --- | --- | --- | --- |
| OC[C@H]1O[C@@H]2O[C@H]3[C@H](O)[C@@H](O)[C@@H](O[C@H]4[C@H](O)[C@@H](O)[C@@H](O[C@H]5[C@H](O)[C@@H](O)[C@@H](O[C@H]6[C@H](O)[C@@H](O)[C@@H](O[C@H]7[C@H](O)[C@@H](O)[C@@H](O[C@H]8[C@H](O)[C@@H](O)[C@@H](O[C@H]1[C@H](O)[C@H]2O)O[C@@H]8CO)O[C@@H]7CO)O[C@@H]6CO)O[C@@H]5CO)O[C@@H]4CO)O[C@@H]3CO [β-cyclodextrin] | at least 30 |  |  |
| O=C(O)COCCN1CCN(C(c2ccccc2)c2ccc(Cl)cc2)CC1 (stereo not drawn) [cetirizine dihydrochloride, 2-[2-[4-[(4-chlorophenyl)phenylmethyl]-1-piperazinyl]ethoxy]acetic acid] |  | 3292 | 3587 |
